The molecules below were run against Glucose-1-phosphate thymidylyltransferase (Pseudomonas aeruginosa (strain ATCC 15692 / DSM 22644 / CIP 104116 / JCM 14847 / LMG 12228 / 1C / PRS 101 / PAO1), UniProt Q9HU22) (assay: Inhibition Assay).
Source text: Inhibition assay using glucose-1-phosphate thymidylyltransferase (RmlA).

Chain of Glucose-1-phosphate thymidylyltransferase (Q9HU22 whole entry): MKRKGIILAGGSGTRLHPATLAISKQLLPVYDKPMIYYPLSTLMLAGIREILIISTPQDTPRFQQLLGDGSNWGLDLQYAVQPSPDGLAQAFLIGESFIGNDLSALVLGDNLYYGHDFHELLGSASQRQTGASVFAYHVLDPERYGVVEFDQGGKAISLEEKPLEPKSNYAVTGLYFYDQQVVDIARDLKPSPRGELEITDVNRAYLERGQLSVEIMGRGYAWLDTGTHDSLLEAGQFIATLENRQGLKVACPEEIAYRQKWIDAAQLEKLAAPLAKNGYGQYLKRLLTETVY

Row | Structure (SMILES) | IC50 [nM]
1 | Nc1c(NS(=O)(=O)c2ccccc2)c(=O)[nH]c(=O)n1Cc1ccccc1 [Analogue of 1a, 15a] | 1320
2 | CN(c1c(N)n(Cc2ccccc2)c(=O)[nH]c1=O)S(=O)(=O)c1ccco1 [Analogue of 1a, 8t] | 105
3 | CCCCn1c(N)c(N(C)S(=O)(=O)c2ccccc2)c(=O)[nH]c1=O [Analogue of 1a, 1] | 210
4 | CN(C(=O)c1ccccc1)c1c(N)n(Cc2ccccc2)c(=O)[nH]c1=O [Analogue of 1a, 8f] | > 60000
5 | CN(c1c(N)n(Cc2ccccc2)c(=O)[nH]c1=O)S(=O)(=O)c1ccccc1 [Analogue of 1a, 8a] | 73
6 | CCCN(c1c(N)n(Cc2ccccc2)c(=O)[nH]c1=O)S(=O)(=O)c1ccccc1 [Analogue of 1a, 8c] | > 10000
7 | CCN(c1c(N)n(Cc2ccccc2)c(=O)[nH]c1=O)S(=O)(=O)c1ccccc1 [Analogue of 1a, 8b] | 102
8 | CCCCn1c(N)c(N(C)C(=O)c2ccco2)c(=O)[nH]c1=O [Analogue of 1a, 5] | 5900
9 | CNc1c(N)n(Cc2ccccc2)c(=O)[nH]c1=O [6-azanyl-5-(methylamino)-1-(phenylmethyl)pyrimidine-2,4-dione] | > 60000
10 | Nc1c(O)n(Cc2ccccc2)c(=O)[nH]c1=O [Analogue of 1a, 2] | 1140

— BindingDB's records for doi:10.1021/cb300426u (University of St. Andrews, 2013)
